Square brackets hold non-standard residues; d marks the D form. Peptide text beside a SMILES is read from it.
Columns and labels:
[1] = system: C57Bl/6J mice; assay: Novelty Suppressed Feeding (NSF) test; format: in vivo; details: 10 μg/kg i.v. daily for 4 days, test on day 5
Method: (§1) Stock solutions were prepared of 2 mg/mL (10^-3M) in distilled water, and before injection spadin solution was diluted in NaCl 0.9% to obtain the different concentrations used for treatments. Corticosterone (Sigma-Aldrich, France) was dissolved in drinking water at the concentration of 3.5 mg/L in the presence of 4.5 g/L of beta-cyclodextrin. […] Fluoxetine (Sigma-Aldrich, France) was dissolved in drinking water at the dose of 80 mg/L and administered during 21 days. For i.p. administration, fluoxetine (TEVA Santé, France) was dissolved in NaCl 0.9% at a concentration of 0.75 mg/mL. The amount injected was 3 mg/kg. Spadin and analogues were administered by i.v. injection. For acute treatment, drugs were administered in a single 100 μL bolus 30 min prior to the beginning of the behavioral tests. For subchronic treatment drugs were injected during 4 consecutive days and behavioral tests were performed on day 5, without additional injection.
The NSF paradigm is a two day test protocol. Day one, mice were deprived from food. Day two mice were placed in a highly brightly lit area, in a plastic box (45×45×20 cm), with a floor covered with wooden bedding. The test was carried out during a 10 min period; during this time the latency to eat was measured. During the test a single pellet of food was placed in the center of the box, on a white platform.

[2] = biological target: human-IKS current (Homo sapiens, UniProt P51787); assay: Cardiac IKs current, whole cell patch clamp in HEK-IKS cell line
Method: The human-TREK-1/HEK293 cell line (h-TREK-1/HEK) (Moha ou Maati, H. et al. (2011). PloS one, 6 (10), e25602) and HEK-IKS cell line (Ducroq, J. et al, (2010) Br J Pharmacol, 159(1):93-101) were grown in the presence of 0.5 mg/mL G418 in Dulbecco's modified Eagle's medium supplemented with 10% (v/v) heat inactivated fetal bovine serum containing 1% (v/v) penicillin/streptomycin in an atmosphere of 95% air/5% CO2.
All electrophysiological recordings were performed in whole cell configuration of the patch clamp technique. Each current was evaluated by using a RK 400 patch clamp amplifier (Axon Instrument, USA), low-pass filtered at 3 kHz and digitized at 10 kHz using a 12-bit analog-to-digital converter digidata (1322 series, Axon Instrument, USA). All current amplitudes are expressed in current densities. Results were expressed as mean±standard error of the mean (SEM). […] The bath solution contained 150 mM NaCl, 5 mM KCl, 3 mM MgCl2, 1 mM CaCl2 and 10 mM HEPES adjusted to pH 7.4 with NaOH. The pipette solution contained 155 mM KCl, 3 mM MgCl2, 5 mM EGTA and 10 mM HEPES adjusted to pH 7.2 with KOH. […] All experiments were performed at room temperature (21-22° c.). Stimulation protocols and data acquisition were carried out using a microcomputer (Dell Pentium) with a commercial software and hardware (pClamp 8.2). Currents were recorded by voltage clamp steps to membrane potentials of −100 to +60 mV in 20 mV steps applied from a holding potential of −80 mV. Duration of depolarization pulses were 0.825 ms, and the pulse cycling rate was 5 sec. […] Cells were continuously superfused with a microperfusion system. […] IKS currents were activated by voltage clamp steps of membrane potentials from −100 to +100 mV in 20 mV steps applied from a holding potential of −80 mV. Tail currents were generated by repolarization to −40 mV. Duration of both depolarization and repolarization pulses were 2.4 s, and the pulse cycling rate was 10 s. […] The amplitudes of IKS and IKR currents were calculated at both the end of the first pulse and the peak of the tail pulse.

[3] = system: C57Bl/6J mice; assay: Forced Swimming Test (FST) in naive mice; format: in vivo; details: for immobility time, FST, duration of action: 10 naive animals
Method: Naïve male C57Bl/6J mice from 7 to 9 weeks old were used in all experiments (Janvier laboratory). Mice were housed 10 animals per cage under a 12-h light/12-h dark cycle (light on at 8:00 am), in a ventilated room at a temperature of 22±1° C. Animals had free access to water and food (A03; SAFE, Augy, France). All experiments were conducted according to policies on the care and use of laboratory animals of the Society for Neuroscience, and also with respect to national laws on animal use. The local Ethics Committee (CIEPAL) approved the experiments.
as §1
The animals were individually placed in a non-escapable cylinder (height 30 cm, diameter 15 cm) filled with 15 cm-water at 22±1° C. The trial was conducted for 6 min. The total period of immobility was manually measured during the last 4 min of the test. A mouse was considered immobile when it remained floating with only slight movements to keep its head above water.

[4] = 0 mV, in the presence of 10 μM, n=5

## CC[C@@H](C)[C@@H](NC(=O)CNC(=O)[C@H](NC(=O)[C@@H](CO)NC(=O)[C@@H](Cc1c[nH]c2ccccc12)NC(=O)CNC(=O)[C@@H](CC(C)C)NC(=O)[C@@H](CCCNC(=N)N)NC(C)=O)C(C)C)C(=O)N1CCC[C@@H]1C(=O)NCC(=O)N[C@H](CO)C(=O)N[C@H](Cc1c[nH]c2ccccc12)C(=O)N[C@H](CCCNC(=N)N)C(=O)N1CCC[C@@H]1C(=O)N[C@H](CC(C)C)C(=O)N1CCC[C@@H]1C(=O)N[C@H](C)C(N)=O [Analog 3, Ac-rlGwsvGipGswrplpa-NH2] (Ac-[dR][dL]G[dW][dS][dV]G[dI][dP]G[dS][dW][dR][dP][dL][dP][dA]-NH2)
[1]
  latency to feed, NSF: 143.88 ± 23.42 s
[2]; [4]
  IKS tail current density: 8.33±2.06 pA/pF
  IKs current density at the end of pulses: 17.58±4.03 pA/pF
[2]; 10 μM
  effect on currents generated by IKS channels expressed in HEK cells: did not modify currents
[3]; 10 μg/kg acute i.v., measured 30 minutes after injection, n=10
  immobility time, FST, acute treatment: 135.10 ± 8.11 s
[3]; 10 μg/kg i.v. once a day for 4 days, test on day 5
  immobility time, FST, subchronic treatment: 114.9 ± 9.82 s
[3]; 1 hour after i.v. injection
  immobility time, FST, duration of action: 123.4 ± 7.0 s
[3]; 16 hours after i.v. injection
  immobility time, FST, duration of action: 129.6 ± 12.7 s
[3]; FST (FIG. 4B)
  duration of activity in vivo compared to Analog 8: active for longer duration in vivo
